Data taken from US7964613B2 (Asahi Kasei Pharma Corporation, priority 2007, dated 2011).

System: rabbit normal intraocular pressure
Assay: Intraocular pressure reducing action
Assay type: in vivo, Japanese white rabbit
Conditions: Oryctolagus cuniculus, topical; 3 mM aqueous solution, 50 μl to the left eye; max IOP reduction (2, 4, 6 hours) / value immediately before administration; read-out: intraocular pressure reducing degree
Experimental: A Japanese white rabbit having a body weight of about 2 kg was placed in a positioner and naturalized for one week before the experiment. An opthalmologic local anesthesant (Benoxil) was administered to both eyes, and then intraocular pressure was measured by using a tonometer (Classic 30, Solan). A 3 mM aqueous solution of a test compound was administered in a volume of 50 μl to the left eye, and the right eye was not treated (control eye). The intraocular pressure values were measured for the left and right eyes immediately before, and 2, 4 and 6 hours after the administration of the aqueous solution of the test compound, and the difference of the measured values for the left and right eyes was considered an intraocular pressure reduction value of the test medicament at each measurement time. The largest difference of the values for the left and right eyes among the measured values at the measurement times (after 2, 4 and 6 hours) was considered the maximum intraocular pressure reduction value (max ? IOP) of each test medicament. The intraocular pressure reducing degree representing the intraocular pressure reducing action of each test medicament was calculated according to the following formula. Since rabbits show significant daily variation of intraocular pressure, daily variation is added when change of intraocular pressure is measured over time, and the intraocular pressure reducing action may be overestimated. Therefore, we used this calculation method of intraocular pressure reduction value in order to minimize the influence of the variation. Intraocular pressure reducing degree(%)=(max ? IOP/Intraocular pressure value immediately before administration)×100

SMILES | inhibition in vivo at 3000 µM [%]
O=C(CCOc1ccccc1)N[C@H]1CCN(S(=O)(=O)c2cccc3cncc(Cl)c23)C1 [Example 76, (S)-3-(3-Phenoxypropionyl)amino-1-(4-chloro-5-isoquinolinesulfonyl)pyrrolidine] | 10 to 20
O=C(COc1ccc2nncn2n1)N[C@H]1CCN(S(=O)(=O)c2cccc3cncc(Cl)c23)C1 [Example 107, (S)-3-[2-([1,2,4]Triazolo[4,3-b]pyridazin-6-yloxy)acetyl]amino-1-(4-chloro-5-isoquinolinesulfonyl)pyrrolidine] | 10 to 20
CC(=O)NCCC(=O)NC1CCN(S(=O)(=O)c2cccc3cncc(Cl)c23)C1 (stereo in doubt) [Example 97, (R)-3-[(3-Acetylamino)propionyl]amino-1-(4-chloro-5-isoquinolinesulfonyl)pyrrolidine] | 10 to 20
CN(C)CC(=O)N(C)[C@H]1CCN(S(=O)(=O)c2cccc3cncc(F)c23)C1 [Example 118, (S)-3-[N-(2-Dimethylamino)acetyl-N-methyl]amino-1-(4-fluoro-5-isoquinolinesulfonyl)pyrrolidine] | 5 to 10
O=C(CN1CCOC1=O)N[C@H]1CCN(S(=O)(=O)c2cccc3cncc(Cl)c23)C1 [Example 93, (S)-3-[2-(2-Oxooxazolidin-3-yl)acetyl]amino-1-(4-chloro-5-isoquinolinesulfonyl)pyrrolidine] | 10 to 20
O=C(CN1CCNCC1)N[C@H]1CCN(S(=O)(=O)c2cccc3cncc(Cl)c23)C1 [Example 91, (S)-3-[2-(piperazin-1-yl)acetyl]amino-1-(4-chloro-5-isoquinolinesulfonyl)pyrrolidine] | 10 to 20
COCC(COC)OCC(=O)N[C@H]1CCN(S(=O)(=O)c2cccc3cncc(Cl)c23)C1 [Example 108, (S)-3-[2-(1,3-Dimethoxypropan-2-yloxy)acetyl]amino-1-(4-chloro-5-isoquinolinesulfonyl)pyrrolidine] | ≥ 20
COCCC(=O)N[C@H]1CCN(S(=O)(=O)c2cccc3cncc(Cl)c23)C1 [Example 77, (S)-3-(3-Methoxypropionyl)amino-1-(4-chloro-5-isoquinolinesulfonyl)pyrrolidine] | ≥ 20
CN(C)CC(=O)N(C)[C@H]1CCN(S(=O)(=O)c2cccc3cncc(Cl)c23)C1 [Example 66-1, (S)-3-[N-(2-Dimethylamino)acetyl-N-methyl]amino-1-(4-chloro-5-isoquinolinesulfonyl)pyrrolidine] | 5 to 10
CN(C)CC(=O)N[C@H]1CCN(S(=O)(=O)c2cccc3cncc(F)c23)C1 [Example 117, (S)-3-[(2-Dimethylamino)acetyl]amino-1-(4-fluoro-5-isoquinolinesulfonyl)pyrrolidine] | 5 to 10
N#Cc1cncc2cccc(S(=O)(=O)N3CC[C@H](N)C3)c12 [Example 13-1, (S)-3-Amino-1-(4-cyano-5-isoquinolinesulfonyl)pyrrolidine] | 5 to 10
